We go through six compounds from patent US6180637A, “1,2,5-trisubstituted 1,2-dihydroindazol-3-ones having anti-asthmatic, anti-allergic, anti-inflammatory, immunomodulating and neuroprotective action, process for their preparation and their use as medicaments” (Arzneimittelwerk Dresden GmbH, priority 1998, dated 2001).

Molecules are shown by their SMILES.

The target in one test is human cyclophilin B (Homo sapiens, UniProt P23284). As to the kind of experiment: Peptidylprolyl isomerase (PPIase) activity inhibition assay. Type of test: biochemical. To be noted: 10 μM compound; 10 nmol Cyp B, preincubated at 4° C. for 15 minutes; test peptide Suc-Ala-Ala-Pro-Phe-Nan. As to the method:
For the initial screening (10 μmol/l), the inhibition of the human cyclophilin B in the PPIase test is determined.
Assay for the determination of the peptidylprolyl isomerase (PPIase) activity and inhibition
The PPIase activity is tested according to a globally customary enzyme test: G. Fischer, H. Bang, C. Mech, Biomed. Biochim. Acta 43 1101-1111; G. Fischer, H. Bang, A. Schellenberger, Biochim. Biophys. Acta 791 (1984), 87-97; D. H. Rich et al., J. Med. Chem. 38 (1995), 4164-4170.
The compounds of the general formula I according to the invention are preincubated at 4° C. for 15 minutes together with 10 nmol of Cyp B. The enzyme reaction is started using the test peptide Suc-Ala-Ala-Pro-Phe-Nan after addition of chymotrypsin and HEPES buffer. The extinction change at 390 nm is then monitored and evaluated. The photometrically determined extinction change results from two sub-reactions: a) the rapid chymotryptic cleavage of the trans-peptide; b) the non-enzymatic cis-trans isomerization, which is catalysed by cyclophilins.

In test [1] the test system is pulmonary eosinophil infiltration. As to the kind of experiment: Inhibition of late-phase eosinophilia 24 h after inhalational ovalbumin challenge in actively sensitized guinea-pigs. Type of test: in vivo, guinea-pig. To be noted: 2 × 30 mg/kg i.p. -2h/+4h, BAL 24 h after OVA challenge. As to the method: Inhibition of late-phase eosinophilia 24 h after inhalational ovalbumin challenge in actively sensitized guinea-pigs
The inhibition of pulmonary eosinophil infiltration by the substances is tested in an in vivo test on male Dunkin-Hartley guinea-pigs (200-250 g) sensitized against ovalbumin (OVA). The sensitization is carried out by means of two intraperitoneal injections of a suspension of 20 μg of OVA together with 20 mg of aluminium hydroxide as an adjuvant in 0.5 ml of physiological saline solution per animal on two successive days. 14 days after the second injection, the animals are pretreated with mepyramine maleate (10 mg/kg i.p.) in order to protect them from anaphylactic death. 30 minutes later, the animals are exposed for 30 sec in a plastic box to an OVA aerosol (0.5 mg/ml) which is generated by a nebulizer driven by compressed air (19.6 kPa) (allergen challenge). Control animals are nebulized with physiological saline solution. […] The eosinophils are stained using the Becton-Dickinson test kit (N. 5877) for eosinophils and counted in a Neubauer chamber. […]
The percentage inhibition of the eosinophilia of the test group treated with substance is calculated according to the following formula: […]

human cyclophilin B, sequence (P23284 34-216): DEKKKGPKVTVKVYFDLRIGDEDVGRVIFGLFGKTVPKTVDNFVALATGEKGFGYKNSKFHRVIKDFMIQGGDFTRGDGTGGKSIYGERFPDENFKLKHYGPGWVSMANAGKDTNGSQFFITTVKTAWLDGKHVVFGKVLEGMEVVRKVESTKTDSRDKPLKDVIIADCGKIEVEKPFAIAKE

In general, inhibition refers to the relative decrease from the control value, in per cent. At human cyclophilin B, `COc1ccc(S(=O)(=O)n2c3ccc(OC)cc3c(=O)n2Cc2cc([N+](=O)[O-])ccc2O)cc1` [Example 1, 2-(2-Hydroxy-5-nitrobenzyl)-5-methoxy-1-(4-methoxybenzenesulphonyl)-1,2-dihydroindazol-3-one] returned an inhibition at 10 µM of 70%. In addition, the “Inhibition [%] of eosinophilia” value in test [1] (OVA-sensitized guinea-pigs) is 97%. Also, the “Eosinophils million/animal x ± s, B” value in test [1] (group B (test group treated with substance)) stood at 0.51 ± 0.25 million/animal.

Take `COc1ccc2c(c1)c(=O)n(Cc1cc([N+](=O)[O-])ccc1O)n2S(=O)(=O)c1ccc(C)cc1` [Example 2, 2-(2-hydroxy-5-nitrobenzyl)-5-methoxy-1-(toluene-4-sulphonyl)-1,2-dihydroindazol-3-one]: testing at 10 µM against human cyclophilin B gave an inhibition of 50%.

On to `COc1ccc2c(c1)c(=O)n(Cc1cc([N+](=O)[O-])ccc1O)n2S(=O)(=O)c1ccc(OC(F)(F)F)cc1` [Example 3, 2-(2-hydroxy-5-nitrobenzyl)-5-methoxy-1-(4-trifluoro-methoxybenzenesulphonyl)-1,2-dihydroindazol-3-one], for which the inhibition at 10 µM at human cyclophilin B turned out to be 93%.

Regarding `COc1ccc2c(c1)c(=O)n(Cc1cc([N+](=O)[O-])ccc1O)n2S(=O)(=O)c1ccc(Cl)cc1` [Example 4, 2-(2-hydroxy-5-nitrobenzyl)-5-methoxy-1-(4-chloro-benzenesulphonyl)-1,2-dihydroindazol-3-one], at human cyclophilin B, the inhibition at 10 µM worked out at 90%.

At human cyclophilin B, `COc1ccc2c(c1)c(=O)n(Cc1cc([N+](=O)[O-])ccc1O)n2S(=O)(=O)c1ccc(F)cc1` [Example 5, 1-(4-fluorobenzenesulphonyl)-2-(2-hydroxy-5-nitrobenzyl)-5-methoxy-1,2-dihydroindazol-3-one] registered an inhibition at 10 µM of 67%.

As for `CSc1ccc2c(c1)c(=O)n(Cc1cc([N+](=O)[O-])ccc1O)n2Cc1ccc(Cl)c(Cl)c1` [Example 26, 1-(3,4-Dichlorobenzyl)-2-(2-hydroxy-5-nitrobenzyl)-5-methylthio-1,2-dihydroindazol-3-one hydrate], 10 µM produced 98% inhibition against human cyclophilin B.
